From ChEMBL document CHEMBL5321285 (J Med Chem, 2023)
Converted amounts (≈) assume the structure as drawn. The source made the active and inactive calls. The calls are words filed in the database; no cut-off is given here.

Assays:
[1] = Dissociation constant, pKa of the compound; format: physicochemical
[2] = Half life in Wistar rat at 1 mg/kg, iv by UPLC-MS/MS analysis; format: ADME, organism-based; details: in vivo
[3] = Metabolic stability in rat liver microsome assessed as parent compound remaining at 1 uM measured after 1 hr in presence of NADPH regenerating system by UPLC-MS/MS analysis; format: ADME; details: liver microsomes, read-out: Stability
Cytochrome P450 2C19 = Cytochrome P450 2C19 (Homo sapiens, UniProt P33261); experiment: Inhibition of CYP2C19 in human liver microsomes using S mephenytoin as substrate incubated for 20 mins by UPLC-MS/MS analysis; format: ADME, Microsome
Cytochrome P450 2C19, sequence (P33261 whole entry): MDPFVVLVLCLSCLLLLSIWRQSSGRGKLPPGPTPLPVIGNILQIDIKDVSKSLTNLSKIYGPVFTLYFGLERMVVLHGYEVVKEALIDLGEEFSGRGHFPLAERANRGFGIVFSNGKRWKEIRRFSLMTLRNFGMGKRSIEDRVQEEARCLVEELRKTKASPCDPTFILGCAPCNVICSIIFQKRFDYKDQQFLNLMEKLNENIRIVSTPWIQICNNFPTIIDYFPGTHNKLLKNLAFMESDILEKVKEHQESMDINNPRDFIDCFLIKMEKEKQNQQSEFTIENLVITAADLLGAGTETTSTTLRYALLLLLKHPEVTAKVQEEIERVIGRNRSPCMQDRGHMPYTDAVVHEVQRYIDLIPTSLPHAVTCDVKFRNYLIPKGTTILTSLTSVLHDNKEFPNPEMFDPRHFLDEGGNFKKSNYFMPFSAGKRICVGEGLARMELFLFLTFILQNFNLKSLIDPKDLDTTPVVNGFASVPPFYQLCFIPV

[4] = Apparent permeability across apical to basolateral side in human Caco-2 cells incubated for 2 hrs by UPLC-MS/MS analysis; format: ADME, cell-based
[5] = Efflux ratio of apparent permeability across […] in human Caco-2 cells; format: ADME, cell-based
[6] = Oral bioavailability in Wistar rat at 10 mg/kg by UPLC-MS/MS analysis; format: ADME, organism-based; details: in vivo
[7] = AUC in Wistar rat at 1 mg/kg, iv by UPLC-MS/MS analysis; format: ADME, organism-based; design: dose 1 mg/kg, route iv; details: in vivo
[8] = Metabolic stability in human liver microsome assessed as parent compound remaining at 1 uM measured after 1 hr in presence of NADPH regenerating system by UPLC-MS/MS analysis; format: ADME; details: liver microsomes, read-out: Stability
Cytochrome P450 1A2 = biological target: T1, Cytochrome P450 1A2 (Homo sapiens, UniProt P05177); experiment: Inhibition of CYP1A2 in human liver microsomes using phenacetin as substrate incubated for 20 mins by UPLC-MS/MS analysis; format: ADME, Microsome
T1 sequence (P05177 whole entry): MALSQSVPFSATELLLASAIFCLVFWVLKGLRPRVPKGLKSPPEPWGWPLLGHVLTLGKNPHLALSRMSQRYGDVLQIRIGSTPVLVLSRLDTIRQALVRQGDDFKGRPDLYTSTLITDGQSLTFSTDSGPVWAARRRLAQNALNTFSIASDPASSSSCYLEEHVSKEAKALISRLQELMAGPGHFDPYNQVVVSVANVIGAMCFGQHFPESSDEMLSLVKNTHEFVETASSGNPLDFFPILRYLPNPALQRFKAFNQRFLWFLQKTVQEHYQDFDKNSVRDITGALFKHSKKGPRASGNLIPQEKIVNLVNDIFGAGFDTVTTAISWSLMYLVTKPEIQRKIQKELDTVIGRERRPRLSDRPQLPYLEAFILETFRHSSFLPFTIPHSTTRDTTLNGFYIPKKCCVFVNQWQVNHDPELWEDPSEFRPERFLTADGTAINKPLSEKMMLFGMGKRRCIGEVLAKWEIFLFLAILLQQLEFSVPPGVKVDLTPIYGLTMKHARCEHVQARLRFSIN

[9] = Lipophilicity, logP of compound; format: physicochemical; details: octanol/water
Rattus norvegicus = experiment: Anti-alzheimer activity against amyloid beta peptide-induced cognitive impairment in Wistar rat model at 10 mg/kg, po measured for 10 days; format: functional, organism-based; details: time 10.0 day
[10] = Cmax in Wistar rat at 1 mg/kg, iv by UPLC-MS/MS analysis; format: ADME, organism-based; design: dose 1 mg/kg, route iv; details: in vivo
[11] = Metabolic stability in rat liver microsome assessed as intrinsic clearance incubated upto 60 mins in presence of NADPH regenerating system by UPLC-MS/MS analysis; format: ADME; details: liver microsomes, read-out: CLH
Cytochrome P450 2C9 = Cytochrome P450 2C9 (Homo sapiens, UniProt P11712); experiment: Inhibition of CYP2C9 in human liver microsomes using tolbutamide as substrate incubated for 20 mins by UPLC-MS/MS analysis; format: ADME, Microsome
Cytochrome P450 2C9, sequence (P11712 whole entry): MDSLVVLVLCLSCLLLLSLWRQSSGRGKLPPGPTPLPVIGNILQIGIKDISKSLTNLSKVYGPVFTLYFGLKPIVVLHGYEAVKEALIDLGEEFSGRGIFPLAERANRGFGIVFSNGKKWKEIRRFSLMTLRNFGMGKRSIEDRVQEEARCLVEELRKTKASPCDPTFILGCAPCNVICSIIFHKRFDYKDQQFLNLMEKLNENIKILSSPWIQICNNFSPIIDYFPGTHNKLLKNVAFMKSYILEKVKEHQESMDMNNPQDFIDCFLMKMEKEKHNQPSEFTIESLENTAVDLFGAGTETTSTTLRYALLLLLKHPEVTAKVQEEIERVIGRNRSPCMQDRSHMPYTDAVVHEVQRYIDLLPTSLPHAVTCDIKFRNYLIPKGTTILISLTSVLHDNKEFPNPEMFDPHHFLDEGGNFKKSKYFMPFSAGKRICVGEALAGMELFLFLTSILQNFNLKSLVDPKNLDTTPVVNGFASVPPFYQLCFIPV

[12] = Clearance in Wistar rat at 1 mg/kg, iv by UPLC-MS/MS analysis; format: ADME, organism-based; details: in vivo
[13] = Metabolic stability in human liver microsome assessed as intrinsic clearance incubated upto 60 mins in presence of NADPH regenerating system by UPLC-MS/MS analysis; format: ADME; details: liver microsomes, read-out: CLH
[14] = Ratio AUC in Wistar rat brain to plasma at 10 mg/kg, po measured for 10 mins by UPLC-MS/MS analysis; format: ADME, organism-based; details: brain and plasma, read-out: Ratio AUC
Neuron = experiment: Neuroprotective activity against MPP+ induced rat neurons at 10 uM pretreated with compond for 1 hr followed by MPP+ addition and measured after 48 hrs; format: functional, cell-based; details: time 49.0 hrs
[15] = Solubility of the compound at pH 7.4; format: physicochemical; details: buffer
[16] = Metabolic stability in mouse liver microsome assessed as parent compound remaining at 1 uM measured after 1 hr in presence of NADPH regenerating system by UPLC-MS/MS analysis; format: ADME; details: liver microsomes, read-out: Stability
[17] = Volume of distribution at steady state in Wistar rat at 1 mg/kg, iv by UPLC-MS/MS analysis; format: ADME, organism-based; details: in vivo, read-out: Vdss
[18] = Lipophilicity, logD of the compound; format: physicochemical; details: octanol/water
[19] = AUC in Wistar rat at 10 mg/kg, po by UPLC-MS/MS analysis; format: ADME, organism-based; design: dose 10 mg/kg, route po; details: in vivo
[20] = Cmax in Wistar rat at 10 mg/kg, po by UPLC-MS/MS analysis; format: ADME, organism-based; design: dose 10 mg/kg, route po; details: in vivo
Cytochrome P450 2D6 = Cytochrome P450 2D6 (Homo sapiens, UniProt P10635); experiment: Inhibition of CYP2D6 in human liver microsomes using bufuralol as substrate incubated for 20 mins by UPLC-MS/MS analysis; format: ADME, Microsome
Cytochrome P450 2D6, sequence (P10635 whole entry): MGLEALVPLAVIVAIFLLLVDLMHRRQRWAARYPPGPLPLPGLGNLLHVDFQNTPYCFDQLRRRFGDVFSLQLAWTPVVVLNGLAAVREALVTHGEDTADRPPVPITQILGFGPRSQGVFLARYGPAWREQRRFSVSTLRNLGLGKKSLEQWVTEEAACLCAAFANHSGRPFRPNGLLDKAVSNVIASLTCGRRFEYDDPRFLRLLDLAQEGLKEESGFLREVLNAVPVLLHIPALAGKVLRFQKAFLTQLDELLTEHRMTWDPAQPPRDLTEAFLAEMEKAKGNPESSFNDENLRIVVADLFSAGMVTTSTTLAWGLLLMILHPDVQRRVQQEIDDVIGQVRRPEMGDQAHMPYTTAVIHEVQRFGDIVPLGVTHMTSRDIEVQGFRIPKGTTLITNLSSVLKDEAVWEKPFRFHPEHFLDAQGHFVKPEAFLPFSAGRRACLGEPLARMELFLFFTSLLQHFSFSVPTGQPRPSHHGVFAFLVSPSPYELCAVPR

[21] = Metabolic stability in mouse liver microsome assessed as intrinsic clearance incubated upto 60 mins in presence of NADPH regenerating system by UPLC-MS/MS analysis; format: ADME; details: liver microsomes, read-out: CLH
[22] = Tmax in Wistar rat at 10 mg/kg, po by UPLC-MS/MS analysis; format: ADME, organism-based; details: in vivo
Cytochrome P450 3A4 = Cytochrome P450 3A4 (Homo sapiens, UniProt P08684); experiment: Inhibition of CYP3A4 in human liver microsomes using testosterone as substrate incubated for 20 mins by UPLC-MS/MS analysis; format: ADME, Microsome
Cytochrome P450 3A4, sequence (P08684 whole entry): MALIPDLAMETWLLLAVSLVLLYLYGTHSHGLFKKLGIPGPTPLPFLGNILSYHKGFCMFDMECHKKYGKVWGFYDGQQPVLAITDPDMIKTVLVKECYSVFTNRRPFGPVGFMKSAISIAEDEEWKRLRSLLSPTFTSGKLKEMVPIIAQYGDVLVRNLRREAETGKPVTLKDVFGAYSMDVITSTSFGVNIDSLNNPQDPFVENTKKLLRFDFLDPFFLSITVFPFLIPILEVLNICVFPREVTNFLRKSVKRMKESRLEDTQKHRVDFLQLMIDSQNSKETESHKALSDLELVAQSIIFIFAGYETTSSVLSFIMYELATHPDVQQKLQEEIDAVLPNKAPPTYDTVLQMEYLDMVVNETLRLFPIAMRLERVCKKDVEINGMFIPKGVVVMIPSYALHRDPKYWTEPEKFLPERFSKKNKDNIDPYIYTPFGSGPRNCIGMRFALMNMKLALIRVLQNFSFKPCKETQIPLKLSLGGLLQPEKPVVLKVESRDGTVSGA

[23] = biological target: Sigma non-opioid intracellular receptor 1 (Homo sapiens, UniProt Q99720); experiment: Displacement of [3H]-(+)-pentazocine from human sigma1 receptor transfected in HEK293 cell membranes assessed as inhibition constant incubated for 120 mins in presence of haloperidol by microbeta scintillation counter analysis; design: species or system Cell membrane
Sigma non-opioid intracellular receptor 1, sequence (Q99720 whole entry): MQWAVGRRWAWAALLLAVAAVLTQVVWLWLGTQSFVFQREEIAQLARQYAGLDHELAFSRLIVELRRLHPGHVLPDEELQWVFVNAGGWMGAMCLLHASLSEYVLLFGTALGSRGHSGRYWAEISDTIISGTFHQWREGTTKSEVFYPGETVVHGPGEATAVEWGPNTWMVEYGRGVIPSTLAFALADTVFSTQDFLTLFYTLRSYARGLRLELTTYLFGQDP

Homo sapiens = organism: Homo sapiens; experiment: Selectivity ratio of Ki for displacement of [3H]-(+)-pentazocine from human sigma1 receptor transfected in HEK293 cell membranes assessed as inhibition constant to Ki for displacement of [3H]-1,3-di-O-tolylguanidine from human sigma 2 receptor/TMEM97 transfected in sigma 1 receptor knockout HEK293 cell membranes assessed as inhibition constant
[24] = Drug concentration in Wistar rat plasma at 10 mg/kg, po measured for 10 mins by UPLC-MS/MS analysis; format: ADME, organism-based
[25] = Tmax in Wistar rat at 1 mg/kg, iv by UPLC-MS/MS analysis; format: ADME, organism-based; details: in vivo
[26] = biological target: Voltage-gated inwardly rectifying potassium channel KCNH2 (Homo sapiens, UniProt Q12809); experiment: Inhibition of hERG expressed in CHO cells at holding potential of -80 mV measured for 15 seconds by whole cell patch clamp assay; format: toxicity, cell-based
Voltage-gated inwardly rectifying potassium channel KCNH2, sequence (Q12809 whole entry): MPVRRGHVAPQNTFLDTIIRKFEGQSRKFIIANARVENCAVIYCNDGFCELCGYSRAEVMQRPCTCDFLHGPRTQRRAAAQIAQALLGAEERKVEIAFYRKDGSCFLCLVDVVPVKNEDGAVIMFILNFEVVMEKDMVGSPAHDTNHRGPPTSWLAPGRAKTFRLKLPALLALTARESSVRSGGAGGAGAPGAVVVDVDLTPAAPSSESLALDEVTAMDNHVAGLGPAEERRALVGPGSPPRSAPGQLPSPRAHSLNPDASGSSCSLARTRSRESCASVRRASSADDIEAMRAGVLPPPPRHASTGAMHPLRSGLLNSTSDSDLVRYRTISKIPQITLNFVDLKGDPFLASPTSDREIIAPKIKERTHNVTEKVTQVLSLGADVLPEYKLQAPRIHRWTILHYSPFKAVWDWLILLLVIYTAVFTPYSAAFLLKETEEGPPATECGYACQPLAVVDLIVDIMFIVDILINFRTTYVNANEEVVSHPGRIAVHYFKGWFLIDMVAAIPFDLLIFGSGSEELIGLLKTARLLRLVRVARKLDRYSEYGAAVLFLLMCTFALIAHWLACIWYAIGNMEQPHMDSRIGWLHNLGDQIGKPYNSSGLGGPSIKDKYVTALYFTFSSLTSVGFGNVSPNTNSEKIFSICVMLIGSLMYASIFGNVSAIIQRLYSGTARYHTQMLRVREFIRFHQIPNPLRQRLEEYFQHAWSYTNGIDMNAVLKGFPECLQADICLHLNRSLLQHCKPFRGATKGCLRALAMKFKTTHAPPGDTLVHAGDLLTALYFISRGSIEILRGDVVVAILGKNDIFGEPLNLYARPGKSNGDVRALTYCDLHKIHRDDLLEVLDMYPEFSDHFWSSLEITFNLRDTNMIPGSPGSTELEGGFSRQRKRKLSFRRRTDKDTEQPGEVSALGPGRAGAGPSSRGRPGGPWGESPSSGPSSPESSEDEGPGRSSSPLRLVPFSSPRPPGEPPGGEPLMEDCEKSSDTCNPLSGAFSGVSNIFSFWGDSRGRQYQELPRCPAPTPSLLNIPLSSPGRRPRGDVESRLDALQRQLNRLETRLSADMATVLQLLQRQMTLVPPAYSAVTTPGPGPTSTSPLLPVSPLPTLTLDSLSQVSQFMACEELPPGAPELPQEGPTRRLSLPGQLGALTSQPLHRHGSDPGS

[27] = biological target: Sigma intracellular receptor 2 (Homo sapiens, UniProt Q5BJF2); experiment: Displacement of [3H]-1,3-di-O-tolylguanidine from human sigma 2 receptor/TMEM97 transfected in sigma 1 receptor knockout HEK293 cell membranes assessed as inhibition constant measured after 120 mins by microbeta scintillation counting analysis; design: species or system Cell membrane
Sigma intracellular receptor 2, sequence (Q5BJF2 whole entry): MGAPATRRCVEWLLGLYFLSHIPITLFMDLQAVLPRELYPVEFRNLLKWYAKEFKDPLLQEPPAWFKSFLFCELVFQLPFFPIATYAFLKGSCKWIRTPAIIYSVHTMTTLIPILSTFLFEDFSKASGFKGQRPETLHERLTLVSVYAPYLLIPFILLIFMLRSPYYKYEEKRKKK

With `CCc1ncc(-c2cc(C)no2)c(C2CCN(CC(=O)N3CCOCC3)CC2)n1` the pKa [1] was 7.4, the half-life [2] was 60 min and the remaining at 1 h, 1 µM [3] was 95%. For the same molecule, the IC50 (Cytochrome P450 2C19) was > 900 µM, the Papp A→B at 2 h [4] was 17.7 ×10⁻⁶ cm/s and the Ratio [5] was 1.2. The bioavailability [6] was 51%, the AUC [7] was 593 ng·h/mL and the remaining at 1 h, 1 µM [8] was 93%. For the same molecule, the IC50 (Cytochrome P450 1A2) was > 900 µM, the logP [9] was 1.7 and the Activity (Rattus norvegicus) was “Active”. For the same molecule, the Cmax [10] was 2020 ng/mL, the microsomal CLint [11] was 1.5 µL/min/mg and the IC50 (Cytochrome P450 2C9) was 600 µM. It also gave a clearance [12] of 28.3 mL/min/kg, a microsomal CLint [13] of 1.6 µL/min/mg and a Kp at 10 min [14] of 0.41. The Activity (Neuron) was “Active”, the solubility [15] was 7280 µg/mL (≈ 18.2 mM) and the remaining at 1 h, 1 µM [16] was 93%. It also gave a Vd [17] of 0.8 L/kg, a logD [18] of 1.4 and an AUC [19] of 3000 ng·h/mL. It also gave a Cmax [20] of 900 ng/mL, an IC50 (Cytochrome P450 2D6) of 133 µM and a microsomal CLint [21] of 2.8 µL/min/mg. The Tmax [22] was 48 min, the IC50 (Cytochrome P450 3A4) was > 900 µM and the Ki [23] was 1.78 µM. For the same molecule, the Ratio Ki (Homo sapiens) was 137, the concentration at 10 min [24] was 250 ng/g and the Tmax [25] was 18 min. The IC50 [26] was > 10 µM and the Ki [27] was 0.013 µM.
